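Grown in 96-well plates, cells were treated for 48 hours with each compound at five concentrations. Insufficient inhibition: endpoint recorded as highest concentration tested. TGI marks complete inhibition of growth.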
Key:
Assay in all cases: growth of human tumour cells (NCI), 48 h
HCT-116 colon = tested on: HCT-116 colon
SF-268 CNS = tested on: SF-268 CNS
OVCAR-4 ovarian = tested on: OVCAR-4 ovarian
U251 CNS = tested on: U251 CNS
HCT-15 colon = tested on: HCT-15 colon
NCI-H460 lung = tested on: NCI-H460 lung
MDA-MB-231 breast = tested on: MDA-MB-231 breast
UO-31 renal = tested on: UO-31 renal
SK-OV-3 ovarian = tested on: SK-OV-3 ovarian
SW-620 colon = tested on: SW-620 colon
ACHN renal = tested on: ACHN renal
A498 renal = tested on: A498 renal
SNB-75 CNS = tested on: SNB-75 CNS
LOX IMVI melanoma = tested on: LOX IMVI melanoma
A549 NSCLC = tested on: A549 NSCLC
RPMI-8226 leukemia = tested on: RPMI-8226 leukemia
MCF7 breast = tested on: MCF7 breast
OVCAR-5 ovarian = tested on: OVCAR-5 ovarian
NCI-H226 lung = tested on: NCI-H226 lung
OVCAR-8 ovarian = tested on: OVCAR-8 ovarian

| Compound | TGI (HCT-116 colon) [µM] | TGI (SF-268 CNS) [µM] | TGI (OVCAR-4 ovarian) [µM] | TGI (U251 CNS) [µM] | TGI (HCT-15 colon) [µM] | TGI (NCI-H460 lung) [µM] | TGI (MDA-MB-231 breast) [µM] | TGI (UO-31 renal) [µM] | TGI (SK-OV-3 ovarian) [µM] | TGI (SW-620 colon) [µM] | TGI (ACHN renal) [µM] | TGI (A498 renal) [µM] | TGI (SNB-75 CNS) [µM] | TGI (LOX IMVI melanoma) [µM] | TGI (A549 NSCLC) [µM] | TGI (RPMI-8226 leukemia) [µM] | TGI (MCF7 breast) [µM] | TGI (OVCAR-5 ovarian) [µM] | TGI (NCI-H226 lung) [µM] | TGI (OVCAR-8 ovarian) [µM] |
| --- | --- | --- | --- | --- | --- | --- | --- | --- | --- | --- | --- | --- | --- | --- | --- | --- | --- | --- | --- | --- |
| Cn1c(=O)cc(NCCc2ccccc2)[nH]c1=O | > 100 | > 100 | > 100 | > 100 | > 100 | > 100 | 50 | > 100 | > 100 | > 100 | > 100 | > 100 | > 100 | > 100 | > 100 | > 100 | > 100 | > 100 | > 100 | > 100 |
| Cc1ccc(CC(Cc2ccc(C)cc2C(=O)O)C(=O)O)cc1 (stereo not given) | > 100 | > 100 | > 100 | > 100 | > 100 | > 100 | > 100 | > 100 | > 100 | > 100 | > 100 | > 100 | > 100 | > 100 | > 100 | > 100 | > 100 | > 100 | > 100 | > 100 |
| Cn1c2ccccc2c2nc3ccccc3c(Cl)c21 | > 100 | > 100 | > 100 | > 100 | > 100 | > 100 | > 100 |  | > 100 | > 100 |  | > 100 | > 100 | > 100 | > 100 | > 100 | > 100 | > 100 | > 100 | > 100 |
| O=C1/C(=C/c2ccccc2)CCc2ccccc21 | 33.5 | 37.4 | 28 | 30.4 | 86.9 | 65.4 | 87.7 | 27.8 | 67.5 | 34.2 | 32.4 | 34.5 | 31.9 | 33 | 57.4 | 9.42 | 34.6 | 33.4 | 35 | 65.5 |
| O=C(O)C1(Cc2ccc3c(c2)CCC3)Cc2ccccc2C1=O (stereo not given) | > 100 | > 100 | > 100 | > 100 | > 100 | > 100 | > 100 | > 100 | > 100 | > 100 | > 100 | > 100 | > 100 | > 100 | > 100 | 92.2 | > 100 | > 100 | > 100 | > 100 |
| O=C(O)c1cc(O)c2c(c1)C([C@@H]1c3cccc(O)c3C(=O)c3c(O)cc(C(=O)O)cc31)c1cccc(O)c1C2=O (stereo not given in full) | 38.1 | 96.9 | > 100 | 67.8 |  | > 100 | 95.8 | > 100 | > 100 | > 100 | > 100 | 69.3 | 62.6 | 31.9 | > 100 | > 100 | 91.8 | > 100 | > 100 | > 100 |
| CC1(C)CCCOc2cccc(c2)OCCCC(C)(C)C1=O | > 100 | > 100 | > 100 | > 100 | > 100 | > 100 | > 100 | > 100 | > 100 | > 100 | > 100 | > 100 | > 100 | > 100 | > 100 | > 100 | > 100 | > 100 | 82.9 |  |
| CC(=O)c1sc(Nc2ccc(Cl)c(Cl)c2)nc1C | > 100 | > 100 | > 100 | > 100 | > 100 | > 100 | > 100 | > 100 | > 100 | > 100 | > 100 | > 100 | > 100 | > 100 | > 100 | > 100 | > 100 | > 100 | > 100 | > 100 |
| O[C@H]1[C@H]2[C@H](O)C[C@H](CCOCc3ccccc3)CN2C[C@H]1O | > 100 | > 100 | > 100 | > 100 | > 100 | > 100 | > 100 | > 100 | > 100 | > 100 | > 100 | > 100 | > 100 | > 100 | > 100 | > 100 | > 100 | > 100 | > 100 | > 100 |
| O=S(=O)(NC1OCCCC1I)c1ccccc1 (stereo not given) | > 100 | > 100 | > 100 | > 100 | > 100 | > 100 | > 100 | > 100 | > 100 | > 100 | > 100 | > 100 | > 100 | > 100 | > 100 | > 100 | > 100 | > 100 | > 100 | > 100 |
| CCNc1nc2c(ncn2C2CC(O)C(COP(=O)(O)O)O2)c(=O)[nH]1 (stereo not given) | > 100 | > 100 | > 100 | > 100 | > 100 | > 100 | > 100 |  | > 100 | > 100 | > 100 | > 100 | > 100 | > 100 | > 100 | > 100 | > 100 | > 100 | > 100 | > 100 |
| CN(/N=C\c1ccc2ccccc2c1)C1=NCCN1 | 31.8 | 84.1 | 73 | 56.5 | > 100 | 30.6 | 36.1 | 31.7 | > 100 | 41.7 | 60 | 28.6 | 41.5 | 25.4 | 36.3 | 48 | 38.7 | > 100 | 37.8 | > 100 |

From PubChem BioAssay (NCI)
